Test results: ChEMBL document CHEMBL1157106, “cis-Clerodane-type furanoditerpenoids from Tinospora crispa” (J Nat Prod, 2010)

Key:
[1] = system: NIH3T3; assay: Cytotoxicity against mouse 3T3 cells after 72 hrs by MTT assay; assay type: cell-based; conditions: NIH3T3, 72 h
[2] = system: PC-3; assay: cells; conditions: Homo sapiens, PC-3, 72 h
Description: Cytotoxicity against human PC3 cells after 72 hrs by MTT assay

Row | SMILES | IC50 [1] | IC50 [2]
1 | C[C@@]12C[C@@H](c3ccoc3)OC(=O)[C@@H]1C[C@@H]1OC(=O)[C@@]3(O)[C@@H](O[C@@H]4O[C@H](CO)[C@@H](O)[C@H](O)[C@H]4O)CC[C@@H]2[C@@]13C [BORAPETOSIDE A] | > 10 µM | > 10 µM
2 | COC(=O)C1=C[C@H](O)C[C@H]2[C@]3(C)C[C@@H](c4ccoc4)OC(=O)[C@H]3C[C@H](O[C@@H]3O[C@H](CO)[C@@H](O)[C@H](O)[C@H]3O)[C@@]12C [BORAPETOSIDE B] | > 10 µM | > 10 µM
3 | COC(=O)C1=CCC[C@H]2[C@]3(C)C[C@@H](c4ccoc4)OC(=O)[C@@H]3C[C@@H](O[C@@H]3O[C@H](CO)[C@@H](O)[C@H](O)[C@H]3O)[C@@]12C [BORAPETOSIDE C] | > 10 µM | > 10 µM
4 | COC(=O)C1=CCC[C@H]2[C@](C)(C[C@@H](O[C@@H]3O[C@H](CO[C@@H]4O[C@H](CO)[C@@H](O)[C@H](O)[C@H]4O)[C@@H](O)[C@H](O)[C@H]3O)c3ccoc3)[C@H]3C[C@H](OC3=O)[C@@]12C [BORAPETOSIDE D] | > 10 µM | > 10 µM
5 | C[C@@H]1C[C@@H]([C@H](O)CC2CC(=O)NC(=O)C2)C(=O)[C@@H](C)C1 [CYCLOHEXIMIDE] | 0.26 µM | –
6 | COc1cccc2c1C(=O)c1c(O)c3c(c(O)c1C2=O)C[C@@](O)(C(=O)CO)C[C@@H]3O[C@H]1C[C@H](N)[C@H](O)[C@H](C)O1 [DOXORUBICIN] | – | 0.912 µM
